Results from patent publication US9925139B2, “Pharmaceutical compositions for acute glucocorticoid therapy” (ACUCORT AB, priority 2004, dated 2018).

Tests used:
[1] = cited from earlier work; for Equivalent amount: dose equivalent for glucocorticoid therapy; for Hydrocortisone equivalent (1 mg of the glucocorticoid corresponds to the listed amount in mg of hydrocortisone): per 1 mg of the glucocorticoid
[2] = In vivo plasma cortisol profile in healthy volunteers with suppressed endogenous cortisol, oral mucosal administration; design: species or system human
Method: The in vivo experiments reported herein were carried out on healthy volunteers. At 6 pm and 11 pm the day before administration of the test composition, the endogenous cortisol secretion was suppressed by oral administration of 2 mg of betamethasone. The test composition was administered to healthy volunteers. The volunteers were in fasted state and were not allowed to take any food until noon. In the case a tablet is administered, it is ingested together with 200 ml of water. The test composition is administered between 8 am and 10 am on the day following the suppression of endogenous glucocorticoid secretion.
In vivo plasma profiles in humans, N=1 per composition
Dexamethasone suppression test, fasting state, otherwise as described in the paragraph denoted “Method”.
Two films were prepared essentially similar to Example 13—composition A. Film A contains 10 mg of hydrocortisone and film B contains 11.2 mg of hydrocortisone acetate.
The hydrocortisone compositions were tested in two human subjects after labial administration. The subjects had their endogenous glucocorticoid secretion suppressed by synthetic glucocorticoids. The plasma concentration of cortisol was monitored during 360 min after the labial administration, and the serum concentration time profiles from these two subjects are shown in FIGS. 6 and 7.
The compositions were tested after oral administration to two human subjects (see FIG. 8).

Compound | Equivalent amount [1] [mg] | Hydrocortisone equivalent (1 mg of the glucocorticoid corresponds to the listed amount in mg of hydrocortisone) [1] [mg] | Time at which first measured plasma concentration was attained ([2]; Example 13 films, 10 mg hydrocortisone, labial administration, two human subjects) [min] | Rate and extent of mucosal uptake ([2]; Example 13 films, 10 mg hydrocortisone, labial administration, two human subjects, FIGS. 6 and 7) | Suitability for an immediate release composition (in vivo plasma profiles) ([2]; Example 11 thin-layer films, humans, N=1 per composition, fasting state, FIGS. 1-3)
CC(=O)OCC(=O)[C@@]1(O)CC[C@H]2[C@@H]3CCC4=CC(=O)CC[C@]4(C)[C@H]3C(=O)C[C@@]21C [Cortisone acetate] | 25 | 0.8 | – | – | –
C[C@]12CCC(=O)C=C1CC[C@@H]1[C@@H]2[C@@H](O)C[C@@]2(C)[C@H]1CC[C@]2(O)C(=O)CO [Hydrocortisone] | 20 | 1 | 10 to 15 | high | –
C[C@@H]1C[C@H]2[C@@H]3C[C@H](F)C4=CC(=O)C=C[C@]4(C)[C@H]3[C@@H](O)C[C@]2(C)[C@@]1(O)C(=O)CO [Paramethasone] | 2 | 10 | – | – | –
C[C@]12C=CC(=O)C=C1CC[C@@H]1[C@@H]2[C@@H](O)C[C@@]2(C)[C@H]1CC[C@]2(O)C(=O)CO [Prednisolone] | 5 | 4 | – | – | –
C[C@]12C=CC(=O)C=C1CC[C@H]1[C@@H]3C[C@@H](O)[C@](O)(C(=O)CO)[C@@]3(C)C[C@H](O)[C@@]12F [Triamcinolone] | 4 | 5 | – | – | –
CC(=O)OCC(=O)[C@@]1(O)CC[C@H]2[C@@H]3CCC4=CC(=O)CC[C@]4(C)[C@H]3[C@@H](O)C[C@@]21C [hydrocortisone acetate] | – | – | – | – | does not seem to be suitable for an immediate release composition
